Drawing on PubChem BioAssay (NCI), this text covers TGI for 14 compounds.

Common to all, as to assay: NCI tumour cell line growth inhibition, 48 h
For test [1], the system named is IGROV1 ovarian.
In test [2] the test system is NCI-H226 lung.
Test [3] concerns NCI-H460 lung.
The subject of test [4] is OVCAR-8 ovarian.
For test [5], the system named is SF-268 CNS.
Test [6] has as its system SK-MEL-5 melanoma.
In test [7] the test system is U251 CNS.
Test [8] deals with UACC-257 melanoma.
Test [9] has as its system CAKI-1 renal.

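These data come from cells grown in 96-well plates and exposed to compound for 48 hours at five concentrations. TGI marks complete inhibition of growth.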

`C[C@]12Cc3conc3C(O)=C1CC[C@@H]1C2CC[C@@]2(C)C1CC[C@]2(C)O` (stereo not given in full): the TGI is 62.2 µM in [1]; 47.3 µM in test [2]; 36.3 µM in test [3]; 61.3 µM in test [4]; over 100 µM in test [5]; 30.7 µM in [6]. Moreover, the TGI stood at 48.9 µM in test [7] and 80.4 µM in [8].

For the compound `C[C@]12CC(C=O)C(=O)C(O)=C1CC[C@@H]1C2CC[C@@]2(C)C1CC[C@]2(C)O` (stereo not given in full), the TGI came out at 47.5 µM in [1]; 39.5 µM in test [2]; 87 µM in test [3]; 89.9 µM in test [4]; 66.1 µM in [5]; 34.5 µM in [6]. The TGI came out at 44.9 µM in test [7] and 75.5 µM in test [8].

Regarding `NC(=O)C(=O)C1C(=O)N(c2ccccc2)N=C1N` (stereo not given), the TGI in [9], in [1], in test [2], in [3], in test [4] and in test [5] was over 100 µM in each case. Further, the TGI in test [8] was over 100 µM.

`Cc1cc(Cl)ccc1N=C1NC(=O)C(CC(=O)Nc2cccc(C)c2C)S1` (stereo not given): the TGI in test [9] was 54.5 µM; in test [1], over 100 µM; in test [3], over 100 µM; in [4] it was 75.9 µM; in [5] it was over 100 µM; in test [6], 41.4 µM. Also, the TGI in test [7] is 74.5 µM; in [8], over 100 µM.

With `CC(C)N1C(C)[C@@H](c2ccccc2)O[P@@]1(=O)CC1=CCCCC1` (stereo not given in full), the TGI in test [1], in test [2], in test [3], in [4], in test [5] and in [6] was over 100 µM each time. Moreover, the TGI in [7] and in test [8] was over 100 µM in each case.

As to `O=[N+]([O-])c1cccc(S(=O)(=O)N/N=C/c2cc(I)cc([N+](=O)[O-])c2O)c1`, the TGI in [9] was 50.9 µM; in test [1] it was over 100 µM; in test [3], over 100 µM; in test [4], 63.2 µM; in [5], 79.3 µM; in test [6], 44 µM. The results for the TGI in [7] and in [8] were 57.8 µM and 57 µM, respectively.

Take `N#CC(C(=N/O)/C(=N\O)C(C#N)c1ccccc1)c1ccccc1` (stereo not given): the TGI in test [1], in test [2], in [3], in test [4], in [5] and in test [6] was over 100 µM in each case. Besides, the TGI in test [7] and in test [8] was over 100 µM each time.

Take `O=C(Nc1ccc([N+](=O)[O-])cc1[N+](=O)[O-])C(=O)C(C(=O)c1ccc(Cl)c(Cl)c1)C1OC(=O)c2ccccc21` (stereo not given): the TGI in [9] was over 100 µM; in [1] it was 84.7 µM; in [2], 36 µM; in test [4], 45.5 µM; in [5], 76.3 µM; in test [7], over 100 µM. For the same compound, the TGI in [8] amounted to 68.4 µM.

Consider `O=C1NC2C3CC(OCc4ccccc4)(OCc4ccccc4)C2OC3O1` (stereo not given), for which the TGI in [9], in [1], in test [2], in test [5], in [6] and in test [8] was over 50 µM in each case.

With `COC(=O)C12C34C=CC5(CCC6(C=CC1(CC3)O6)C52C(=O)OC)O4` (stereo not given), the TGI in test [9], in test [1], in test [2], in [3], in test [4] and in test [5] was over 100 µM throughout. Further, the TGI in test [7] and in [8] was over 100 µM in each case.

For `C=CC(=O)Nc1ccccc1CC(c1c[nH]c2ccccc12)c1c[nH]c2ccccc12`, the TGI in test [9] worked out at 37.7 µM; in test [1], 36.6 µM; in [2] it was 40.1 µM; in test [4], 33.6 µM; in test [5] it was 43.1 µM; in test [6], 33.4 µM. Also, in test [8], the TGI came out at 40.5 µM.

On to `NCCCC(N=Cc1nc(-c2ccccc2)oc1O)C(=O)O` (stereo not given), for which the TGI in [1], in test [2], in [3], in test [4], in test [5] and in test [6] was over 100 µM each time. Moreover, the TGI in test [7] and in test [8] was over 100 µM throughout.

In the case of `CCCCCCCCCCCCCCCCCCOCC(C[N+]1(C)CCC(O)CC1)OCC` (stereo not given), the TGI in [9] is 21.1 µM; in test [1], 21 µM; in [2], 21.4 µM; in test [4], 41.4 µM; in test [5] it was 15 µM; in test [8] it was 28 µM.

Regarding `CC1(C2COC(=O)C2)SCCCS1` (stereo not given), the TGI in test [9], in [1], in [2], in test [3], in [4] and in test [5] was over 100 µM throughout. The TGI in test [6] and in [8] was over 100 µM each time.
